These compounds were tested on genotype 1/2 chimeric cell culture derived HCV (HCVcc) (assay: Genotype 1/2 chimeric HCVcc assay (nano-luciferase, HCV replication)). Conditions: Hepatitis C virus.
Format: cell-based
In short: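 EC50 (replication, nano-luciferase) and CC50 (viability, cellular ATP) were determined by non-linear regression 72 h after infection with a reporter HCVcc chimera carrying genotype 1a structural and 2a JFH-1 non-structural proteins. Compound was applied to Huh-7.5 cells 2 h before inoculation.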
Compound O=C(NCCCN1CCC(N2CCCCC2)CC1)c1ccc(-c2ccc(F)cc2F)cc1 [Compound 1134] has an EC50 of 0.1 to 1 µM.
Work on O=C(Nc1cccc(N2CCC(N3CCCCC3)CC2)c1)c1ccc(Oc2ccccc2)cc1 [Compound 1049] yielded an EC50 of 0.1 to 1 µM.
Work on O=C(NCCCN1CCCC1)c1ccc(C2CCCCC2)cc1 [Compound 1006] yielded an EC50 of 1 to 10 µM.
For O=C(NCCCN1CCCC1)c1cc2c(s1)CCCC2 [Compound 1004], the EC50 was > 10 µM.
O=C(NCCCN1CCC(c2ccncc2)CC1)c1ccc(Oc2ccccc2)cc1 [Compound 1055] was tested, and the EC50 was > 10 µM.
CC(C)C1CCN(C2CCN(CCCNC(=O)c3ccc(Oc4ccccc4)cc3)CC2)CC1 [Compound 1069] was tested, and the EC50 was 0.1 to 1 µM.
O=C(NCCCN1CCN(C2CCCCC2)CC1)c1ccc(Oc2ccccc2)cc1 [Compound 1037] was tested, and the EC50 was > 10 µM.
O=C(NCCCN1CCC(N2CCCCC2)CC1)c1ccc(-c2ccc(C(F)(F)F)cc2)o1 [Compound 1083] was tested, and the EC50 was 0.1 to 1 µM.
Compound O=C(NCCCN1CCC(N2CCCCC2)CC1)c1ccc(-c2ccc(C(F)(F)F)cn2)cc1 [Compound 1100] has an EC50 of 0.1 to 1 µM.
In the case of O=S(=O)(NCCCN1CCC(N2CCCCC2)CC1)c1ccc(-c2ccc(Cl)cc2)cc1 [Compound 1099], the EC50 is reported as 0.1 to 1 µM.
For O=C(NCCCN1CCC(N2CCCCC2)CC1)c1ccc(-c2cccc(OC(F)(F)F)c2)cc1 [Compound 1145], the EC50 was 0.1 to 1 µM.
With CC(C)(C)OC(=O)N1CCC(C2CCN(CCCNC(=O)c3ccc(Oc4ccccc4)cc3)CC2)CC1 [Compound 1073] the EC50 was 0.1 to 1 µM.
In the case of CN(C)c1ccc(Oc2ccc(C(=O)NCCCN3CCC(N4CCCCC4)CC3)cc2)cc1 [Compound 1110], the EC50 is reported as 0.1 to 1 µM.
O=C(NCCCN1CCC(N2CCCCC2)CC1)c1ccc(-c2ccncc2)cc1 [Compound 1024] was tested, and the EC50 was > 10 µM.
In the case of N#Cc1ccc(Oc2ccc(C(=O)NCCCN3CCC(N4CCCCC4)CC3)cc2)cc1 [Compound 1035], the EC50 is reported as > 10 µM.
With COc1ccc(Oc2ccc(C(=O)NCCCN3CCC(N4CCCCC4)CC3)cc2)cc1 [Compound 1032] the EC50 was 0.1 to 1 µM.
In the case of CN(C)C1CCN(CCCNC(=O)c2ccc(Oc3ccccc3)cc2)CC1 [Compound 1068], the EC50 is reported as 0.1 to 1 µM.
N#Cc1cccc(-c2ccc(C(=O)NCCCN3CCC(N4CCCCC4)CC3)cc2)c1 [Compound 1150] showed an EC50 of 0.1 to 1 µM.

Same assay, conditions: Hepatitis C virus, Huh7.5, 72 h
With CCOC(=O)c1c(NC(=O)NCc2c(-n3cccc3)sc3c2CCN(CC)C3)sc(C)c1-c1ccc(F)cc1 [Compound 42] the EC50 was < 0.1 µM.
CC(C)OC(=O)c1c(NC(=O)NCc2c(Br)sc3c2CC[N+](C)(C)C3)sc2c1CCCC2 [Compound 173] was tested, and the EC50 was < 0.1 µM.
CCOC(=O)c1c(NC(=O)NCc2cc(CN(C)C)ccc2F)sc2c1CCCC2 [Compound 108] showed an EC50 of 0.1 to 1 µM.
For CC1CCCc2sc(NC(=O)NCc3c(C(F)(F)F)sc4c3CCNC4)c(C(=O)OC(C)(C)C)c21 (stereo not drawn) [Compound 265], the EC50 was < 0.1 µM.
In the case of CC(C)(C)OC(=O)c1c(NC(=O)NCc2c(-n3cccc3)sc3c2CCNC3)sc2c1CCCCC2 [Compound 302], the EC50 is reported as < 0.1 µM.
For CCN1CCc2c(sc(-n3cccc3)c2CNC(=O)Nc2sc(C)c(C)c2C(=O)OC(C)C)C1 [Compound 195], the EC50 was < 0.1 µM.
With CC1CCc2c(sc(NC(=O)NCc3c(-n4cccc4)sc4c3CCN(C)C4)c2C(=O)OC(C)(C)C)C1 (stereo not drawn) [Compound 210] the EC50 was < 0.1 µM.
CCN1CCc2c(sc(Br)c2CNC(=O)Nc2sc3c(c2C(=O)OC(C)(C)C)CCCCC3)C1 [Compound 280] was tested, and the EC50 was < 0.1 µM.
With Cc1nnc(-c2c(NC(=O)NCc3c(-n4cccc4)sc4c3CCN(C)C4)sc3c2CCCC3)o1 [Compound 65] the EC50 was < 0.1 µM.
For COCCN1CCc2c(sc(-n3cccc3)c2CNC(=O)Nc2sc3c(c2C(=O)OC(C)(C)C)CCCC3)C1 [Compound 259], the EC50 was < 0.1 µM.
With CC(C)(C)OC(=O)c1c(NC(=O)NCc2c(-c3ccc4cc[nH]c4c3)sc3c2CCNC3)sc2c1CCCC2 [Compound 201] the EC50 was 1 to 10 µM.
In the case of CCN1CCc2c(sc(-n3cccc3)c2CNC(=O)Nc2sc3c(c2C(=O)NNC(C)C)CCCC3)C1 [Compound 209], the EC50 is reported as < 0.1 µM.
With COc1sc(NC(=O)NCc2c(C(F)(F)F)sc3c2CCNC3)c(C(=O)OC(C)(C)C)c1C [Compound 371] the EC50 was < 0.1 µM.
For CCOC(=O)c1c(NC(=O)NCc2c(C(F)(F)F)sc3c2CCNC3)sc2c1CCC(C)C2 (stereo not drawn) [Compound 166], the EC50 was < 0.1 µM.
In the case of CC(C)(C)OC(=O)c1c(NC(=O)NCc2csc3c2CCNC3)sc2c1CCCC2 [Compound 124], the EC50 is reported as < 0.1 µM.
For CCOC(=O)c1c(NC(=O)NCc2c(C(F)(F)F)sc(CN(C)C)c2C)sc2c1CCCC2 [Compound 214], the EC50 was < 0.1 µM.
With CCN1CCc2c(sc(-n3cccc3)c2CNC(=O)Nc2sc3c(c2C(=O)OC(C)(C)C)CCCCC3)C1 [Compound 115] the EC50 was < 0.1 µM.
With O=C(NCc1c(-c2ccoc2)sc2c1CCNC2)Nc1sc2c(c1C(=O)OC1CCOC1)CCOC2 (stereo not drawn) [Compound 337] the EC50 was < 0.1 µM.
With C=CCCOC(=O)c1c(NC(=O)NCc2c(C(F)(F)F)sc3c2CCNC3)sc2c1CCCC2 [Compound 275] the EC50 was < 0.1 µM.
With CCOC(=O)c1c(NC(=O)NCc2c(-n3cccc3)sc3c2CCN(CC)C3)sc2c1CCN(C(C)=O)C2 [Compound 47] the EC50 was < 0.1 µM.
For CCOC(=O)c1c(NC(=O)NCc2c(-n3cccc3)sc3c2CCCNC3)sc2c1CCCC2 [Compound 243], the EC50 was < 0.1 µM.
C=CCCOC(=O)c1c(NC(=O)NCc2c(-n3cccc3)sc3c2CCNC3)sc2c1CCCC2 [Compound 276] was tested, and the EC50 was < 0.1 µM.
For Cc1sc(NC(=O)NCc2c(Br)sc3c2CCNC3)c(C(=O)OC(C)C)c1C [Compound 216], the EC50 was < 0.1 µM.
For CCN1CCc2c(sc(-n3cccc3)c2CNC(=O)Nc2nccs2)C1 [Compound 13], the EC50 was > 10 µM.
In the case of CCOC(=O)c1c(NC(=O)NCc2c(Br)sc3c2CCNC3)sc2c1CC(C)CC2 (stereo not drawn) [Compound 193], the EC50 is reported as < 0.1 µM.
For CCc1c(C)sc(NC(=O)NCc2c(C(F)(F)F)sc3c2CCNC3)c1C(=O)OC(C)(C)C [Compound 268], the EC50 was < 0.1 µM.
For CCN1CCc2c(sc(Br)c2CNC(=O)Nc2sc(C)c(C)c2C(=O)OC(C)C)C1 [Compound 264], the EC50 was < 0.1 µM.
CC(C)(C)OC(=O)c1c(NC(=O)NCc2c(-c3ccc(F)cc3)sc3c2CCNC3)sc2c1CCCC2 [Compound 159] was tested, and the EC50 was < 0.1 µM.
Cc1sc(NC(=O)NCc2c(-c3cccc(Cl)c3)sc3c2CCN(CCN(C)C)C3)c(C(=O)OC(C)(C)C)c1C [Compound 365] gave an EC50 of 0.1 to 1 µM.
For CCOC(=O)c1c(NC(=O)NCc2c(-n3cccc3)sc3c2CCN(CC)C3)sc2c1CCCC2 [Compound 2], the EC50 was < 0.1 µM.
In the case of CC(C)(C)OC(=O)c1c(NC(=O)NCc2c(-c3ccncc3)sc3c2CCNC3)sc2c1CCCC2 [Compound 145], the EC50 is reported as < 0.1 µM.
With CC(C)(C)OC(=O)c1c(NC(=O)NCc2c(-n3cccc3)sc3c2CCN(CC(F)(F)F)C3)sc2c1CCCC2 [Compound 240] the EC50 was < 0.1 µM.
For CC(C)(C)OC(=O)c1c(NC(=O)NCc2c(C(F)(F)F)sc3c2CCN(CCO)C3)sc2c1CCCC2 [Compound 373], the EC50 was < 0.1 µM.
Work on N#Cc1c(NC(=O)NCc2c(-n3cccc3)sc3c2CCCC3)sc2c1CCCC2 [Compound 6] yielded an EC50 of 1 to 10 µM.
With CCOC(=O)c1c(NC(=O)NCc2c(C(F)(F)F)sc3c2CCNC3)sc2ccccc12 [Compound 348] the EC50 was < 0.1 µM.
In the case of CCOC(=O)c1c(NC(=O)NCc2c(-n3cccc3)sc3c2CCN(S(C)(=O)=O)C3)sc2c1CCCC2 [Compound 21], the EC50 is reported as < 0.1 µM.
Compound CCN1CCc2c(sc(-n3cccc3)c2CNC(=O)Nc2sc3c(c2C(=O)NCCCCNC(=O)CCCCCN)CCCC3)C1 [Compound 88] has an EC50 of 1 to 10 µM.
For CC(C)OC(=O)c1c(NC(=O)NCc2c(C(F)(F)F)sc3c2CCN(C)C3)sc2c1CCCC2 [Compound 169], the EC50 was < 0.1 µM.
Compound CCOC(=O)c1c(NC(=O)NCc2c(N3C(=O)CCC3=O)sc3c2CCN(CC)C3)sc2c1CCCC2 [Compound 31] has an EC50 of 0.1 to 1 µM.
In the case of CCN1CCc2c(sc(-n3cccc3)c2CNC(=O)Nc2sc3c(c2C(=O)OC(C)(C)C)C(C)CCC3)C1 (stereo not drawn) [Compound 292], the EC50 is reported as < 0.1 µM.
In the case of CC(C)(C)OC(=O)c1c(NC(=O)NCc2c(C(F)(F)F)sc3c2CCNC3)sc2c1CCOC2F (stereo not drawn) [Compound 335], the EC50 is reported as < 0.1 µM.
With CC1CCc2sc(NC(=O)NCc3c(C(F)(F)F)sc4c3CCNC4)c(C(=O)OC(C)(C)C)c2C1 (stereo not drawn) [Compound 233] the EC50 was < 0.1 µM.
Cc1noc(-c2c(NC(=O)NCc3c(-n4cccc4)sc4c3CCNC4)sc3c2CCCC3)n1 [Compound 304] gave an EC50 of 0.1 to 1 µM.
CCOC(=O)c1c(NC(=O)NCc2c(-n3cccc3)sc3c2CCN(CC)C3)sc2c1CCCCC2 [Compound 56] was tested, and the EC50 was < 0.1 µM.
In the case of Cc1sc(NC(=O)NCc2c(C(F)(F)F)sc3c2CCNC3)c(C(=O)OC2CCOC2)c1C (stereo not drawn) [Compound 350], the EC50 is reported as < 0.1 µM.
Cc1ccccc1-c1sc2c(c1CNC(=O)Nc1sc3c(c1C(=O)OC(C)(C)C)CCCC3)CCNC2 [Compound 250] showed an EC50 of 0.1 to 1 µM.
Cn1ccc(-c2sc3c(c2CNC(=O)Nc2sc4c(c2C(=O)OC(C)(C)C)CCCC4)CCNC3)c1 [Compound 182] was tested, and the EC50 was < 0.1 µM.
CC(C)(C)OC(=O)c1c(NC(=O)NCc2c(C(F)(F)F)sc3c2CCNC3)sc2c1CCC1(C2)OCCO1 [Compound 311] was tested, and the EC50 was < 0.1 µM.
For CCOC(=O)c1c(NC(=O)NCc2ccc(CN(C)C)cc2Br)sc2c1CCCC2 [Compound 93], the EC50 was 0.1 to 1 µM.
With O=C(NCc1c(Br)sc2c1CCNC2)Nc1sc2c(c1C(=O)OC1CCCC1)CCCC2 [Compound 262] the EC50 was < 0.1 µM.
CC(C)(C)OC(=O)c1c(NC(=O)NCc2c(-c3ccc(Cl)cc3)sc3c2CCNC3)sc2c1CCCC2 [Compound 179] was tested, and the EC50 was < 0.1 µM.
CCc1cc(C(=O)OC(C)(C)C)c(NC(=O)NCc2c(C(F)(F)F)sc3c2CCNC3)s1 [Compound 354] was tested, and the EC50 was < 0.1 µM.
In the case of O=C(NCc1c(-n2cccc2)sc2c1CCNC2)Nc1sc2c(c1C(=O)NCc1ccccc1)CCCC2 [Compound 82], the EC50 is reported as 0.1 to 1 µM.
For CCOC(=O)c1c(NC(=O)NCc2c(C(F)(F)F)sc3c2CCN(C(C)C)C3)sc2c1CCCC2 [Compound 198], the EC50 was < 0.1 µM.
For CN1CCc2c(sc(Br)c2CNC(=O)Nc2sc3c(c2C(=O)OC(C)(C)C)CCCC3)C1 [Compound 185], the EC50 was < 0.1 µM.
With CCc1sc2c(c1CNC(=O)Nc1sc3c(c1C(=O)OC(C)(C)C)CCC(C)C3)CCNC2 (stereo not drawn) [Compound 289] the EC50 was < 0.1 µM.
CCOC(=O)c1c(NC(=O)NCc2ccsc2)sc2c1CCCC2 [Compound 3] was tested, and the EC50 was < 0.1 µM.
